Assay results taken from patent publication US5047512A, “Immobilized cyclophilin and methods of using such” (priority 1987, dated 1991).
Where “and” joins values, the source holds several entries; their conditions need not be identical. Identical values can stand only once. Where a SMILES comes first, the peptide text is derived from it. [ ]: non-standard residue; d: D form. NMe(dihydroBmt) = CCCC[C@@H](C)[C@@H](O)[C@H](NC)C(=O)O; NMeL = CN[C@@H](CC(C)C)C(=O)O; NMeV = CN[C@H](C(=O)O)C(C)C; Sar = CNCC(=O)O

Key:
[1] = Isoelectric point of cyclophilin; assay type: physicochemical
Procedure: The column was harvested at a flow rate of 1 ml/min. and the pH of each fraction was measured prior to titration with 1M potassium dihydrogen phosphate to pH 7.0.

[2] = Retention of analog relative to CsA on a uBondapak phenyl column as a measure of hydrophobicity; assay type: physicochemical; conditions: isocratic 60% acetonitrile, 1 ml/min
[3] = biological target: T1, cyclophilin (Bos taurus, UniProt P62935); assay: Cyclophilin affinity: enhancement of the intrinsic tryptophan fluorescence of cyclophilin by CsA or analogs; assay type: binding; conditions: 5 ug/ml cyclophilin, pH 7.2; for Cyclophilin affinity 0.25 ug/ml: ligand 0.25 ug/ml; for Cyclophilin affinity 1.0 ug/ml: ligand 1.0 ug/ml
T1 construct: from tissue; host or cells: purified from tissue cytosol
T1 sequence (P62935 whole entry): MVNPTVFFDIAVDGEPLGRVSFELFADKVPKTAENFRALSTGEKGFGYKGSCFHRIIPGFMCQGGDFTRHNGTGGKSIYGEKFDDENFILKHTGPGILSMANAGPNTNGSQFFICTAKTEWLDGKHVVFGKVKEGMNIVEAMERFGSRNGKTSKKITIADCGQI

[4] = CsA binding activity (3H-CsA binding, Sephadex LH-20 columns); conditions: for CsA binding specific activity: purified bovine isoforms, weak cation exchange HPLC; for CsA bound per mole of cyclophilin species: stoichiometry, major and minor isoforms
Procedure: A typical procedure for the purification of cyclophilin will next be described. […] After addition of 10 ul ^3 H-CsA (50 ug/ml; 0.05 uCi/ml in 40% ethanol), tubes were agitated gently and 50 ul was applied to 1.8 ml Sephadex LH-20 (hydroxypropylated […]) columns pre-equilibrated with assay buffer. The samples were then washed into the columns with 500 ul of assay buffer followed by an additional 500 ul to elute cyclophilin-CsA complexes. Elution fractions were diluted in 5.6 ml Liquiscint (a fluor-containing liquid to permit β-scintillation counting of ^3 H) and the binding activity quantified as equal to (cpm - background).div.(quench correction×^3 H-CsA specific activity)×(volume of test sample).
The isoforms of bovine cyclophilin were separated by weak cation exchange high pressure liquid chromatography. […] Samples were injected onto a weak cation exchange HPLC column (Synchropak CM300:[…]; pore size 300 Å) pre-equilibrated with 5 mM potassium phosphate, 5 mM 2-ME, pH 7.2. The isoforms were eluted at 1 ml/min with a concave gradient (5 mM potassium phosphate, pH 7.2 to 175 mM NaCl, 5 mM potassium phosphate, pH 7.2) generated with a gradient programmer. Milligram quantities of the bovine cyclophilin isoforms were obtained by automating injection, gradient elution and collection. […] The disassociation constant is about 2×10^-7 M.

[5] = Stability of CsA binding activity of cyclophilin; assay type: physicochemical
Source text: Similarly, it can be used to purify the ligand from a composition containing ligand. For example, the cyclophilin can be used for purifying CsA or related structures from a yeast fermentation broth in which the CsA is produced. Further, it can be used to select compounds which bind to cyclophilin as a screening test for identifying new immunosuppressant drugs. In these various procedures, it is preferred, although not required, to immobilize the cyclophilin. This can be accomplished by any procedure known in the art. A particularly useful immobilizing matrix is agarose having carboxy terminated C12 spacer arm esterfied to N-hydroxysuccinimide. This matrix is commercially available under the name Affigel-10 (Biorad). The immobilized cyclophilin is prepared by effecting a transamination with the N-hydroxysuccinimide being split off and the cyclophilin replacing it. The binding of the cyclophilin to this matrix can result in a marked stabilization of the bound activity through a three-dimensional stabilization achieved by multiple bonds through the ε-amino groups of lysine.

Compound | Retention time of analog relative to CsA [2] | Cyclophilin affinity 0.25 ug/ml [3] | Cyclophilin affinity 1.0 ug/ml [3] | also measured
Bovine cyclophilin: Bovine thymocyte cyclophilin contains 163 amino acid residues; sequence in FIG. 1 |  |  |  | isoelectric point [1]: about 9.6
C/C=C/C[C@@H](C)[C@@H](O)[C@H]1C(=O)N[C@@H]([C@@H](C)O)C(=O)N(C)CC(=O)N(C)[C@@H](CC(C)C)C(=O)N[C@@H](C(C)C)C(=O)N(C)[C@@H](CC(C)C)C(=O)N[C@@H](C)C(=O)N[C@H](C)C(=O)N(C)[C@@H](CC(C)C)C(=O)N(C)[C@@H](CC(C)C)C(=O)N(C)[C@@H](C(C)C)C(=O)N1C [CsC, cyclosporin C] | 0.70 | 0.31 | 0.69 | 
minor isoform of cyclophilin: minor isoform of bovine cyclophilin separated by weak cation exchange HPLC |  |  |  | CsA binding specific activity [4]: 67 ug per mg of protein; CsA bound per mole of cyclophilin species [4]: about one
C/C=C/C[C@@H](C)[C@@H](O)[C@H]1C(=O)N[C@@H](CCC)C(=O)N(C)CC(=O)N(C)[C@@H](CC(C)C)C(=O)N[C@@H](C(C)C)C(=O)N(C)[C@@H](CC(C)C)C(=O)N[C@@H](C)C(=O)N[C@H](C)C(=O)N(C)[C@@H](CC(C)C)C(=O)N(C)[C@@H](CC(C)C)C(=O)N(C)[C@@H](C(C)C)C(=O)N1C [CsG] | 1.14 | 0.30 | 0.87 | 
CCCC[C@@H](C)[C@@H](O)[C@H]1C(=O)N[C@@H](C(C)C)C(=O)N(C)CC(=O)N(C)[C@@H](CC(C)C)C(=O)N[C@@H](C(C)C)C(=O)N(C)[C@@H](CC(C)C)C(=O)N[C@@H](C)C(=O)N[C@H](C)C(=O)N(C)[C@@H](CC(C)C)C(=O)N(C)[C@@H](CC(C)C)C(=O)N(C)[C@@H](C(C)C)C(=O)N1C [Dihydro-CsD] (cyclo(A[dA][NMeL][NMeL][NMeV][NMe(dihydroBmt)]V[Sar][NMeL]V[NMeL])) | 1.28 | 0.19 | 0.72 | 
cyclophilin: homogeneous cytosolic binding protein which has a molecular weight of approximately 17,600 daltons |  |  |  | stability of CsA binding activity ([5]; temperature, pH, proteases, in words): unstable at 56 °C and at pH 4 or 9.5, and sensitive to proteases, i.e. trypsin; irreversible loss of CsA binding activity ([5]; unbound cyclophilin in solution with 8M urea, after dialysis): at least 60%; loss of CsA binding activity in 30% acetonitrile ([5]; unbound cyclophilin, 10 minute exposure to 30% acetonitrile): complete loss of activity; CsA binding specific activity of purified cyclophilin ([4]; purified cyclophilin): above 50 ug per mg of protein
Human cyclophilin: N-terminal sequence (72 residues) of bovine and human cyclophilin is completely identical |  |  |  | isoelectric point [1]: 7.4 and 9.1
C/C=C/C[C@@H](C)[C@@H](OC(C)=O)[C@H]1C(=O)N[C@@H](CC)C(=O)N(C)CC(=O)N(C)[C@@H](CC(C)C)C(=O)N[C@@H](C(C)C)C(=O)N(C)[C@@H](CC(C)C)C(=O)N[C@@H](C)C(=O)N[C@H](C)C(=O)N(C)[C@@H](CC(C)C)C(=O)N(C)[C@@H](CC(C)C)C(=O)N(C)[C@@H](C(C)C)C(=O)N1C [O-Acetyl-CsA] | 1.69 | -0.02 | -0.03 | 
major isoform of cyclophilin: major isoform of bovine cyclophilin separated by weak cation exchange HPLC |  |  |  | CsA binding specific activity [4]: 77 ug per mg of protein; CsA bound per mole of cyclophilin species [4]: about one
CCCC[C@@H](C)[C@@H](O)[C@H]1C(=O)N[C@@H]([C@@H](C)O)C(=O)N(C)CC(=O)N(C)[C@@H](CC(C)C)C(=O)N[C@@H](C(C)C)C(=O)N(C)[C@@H](CC(C)C)C(=O)N[C@@H](C)C(=O)N[C@H](C)C(=O)N(C)[C@@H](CC(C)C)C(=O)N(C)[C@@H](CC(C)C)C(=O)N(C)[C@@H](C(C)C)C(=O)N1C [Dihydro-CsC] (cyclo(A[dA][NMeL][NMeL][NMeV][NMe(dihydroBmt)]T[Sar][NMeL]V[NMeL])) | 0.79 | 0.33 | 0.70 | 
C/C=C/C[C@@H](C)[C@@H](O)[C@H]1C(=O)N[C@@H](C(C)C)C(=O)N(C)CC(=O)N(C)[C@@H](CC(C)C)C(=O)N[C@@H](C(C)C)C(=O)N(C)[C@@H](CC(C)C)C(=O)N[C@@H](C)C(=O)N[C@H](C)C(=O)N(C)[C@@H](CC(C)C)C(=O)N(C)[C@@H](CC(C)C)C(=O)N(C)[C@@H](C(C)C)C(=O)N1C [CsD] | 1.20 | 0.21 | 0.69 | 
